Source: patent publication US20100063085A1, “METHOD OF TREATING LEARNING IMPAIRMENT IN DOWN'S SYNDROME SUBJECTS” (University Court of The University of Dundee, priority 2008, published 2010)
Where two headings read alike, the source gives them in different places.

Key:
Type in all cases: biochemical
[1] = biological target: T1, SAPK3/p38g (Homo sapiens, UniProt P53778); assay: SAPK3/p38g 33P kinase assay; details: read-out: SAPK3/p38g activity as percentage of control without inhibitor
T1 sequence (P53778 1-367): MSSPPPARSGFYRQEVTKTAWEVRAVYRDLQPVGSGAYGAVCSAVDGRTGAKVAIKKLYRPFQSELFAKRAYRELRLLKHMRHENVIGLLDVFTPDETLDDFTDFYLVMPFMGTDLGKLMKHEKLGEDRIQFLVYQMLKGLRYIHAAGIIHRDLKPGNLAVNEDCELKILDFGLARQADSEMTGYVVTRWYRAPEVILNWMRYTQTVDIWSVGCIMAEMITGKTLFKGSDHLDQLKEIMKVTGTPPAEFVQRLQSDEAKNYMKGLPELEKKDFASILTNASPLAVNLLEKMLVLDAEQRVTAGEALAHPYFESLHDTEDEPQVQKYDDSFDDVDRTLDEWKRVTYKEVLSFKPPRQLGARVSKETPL
Protocol: (§1) All assays (25.5 μl) were carried out at room temperature (21° C.) and were linear with respect to time and enzyme concentrations under the conditions used. Assays were performed for 30 minutes except assays for LCK and PKB which were performed for 15 minutes using Multidrop Micro reagent dispensers (Thermo Electron Corporation, Waltham, Mass. 02454, USA) in a 96-well format. The concentration of […] [γ-^33P] ATP (800 cpm/pmol) in the assays was one of three concentrations (5, 20 or 50 μM) in order to be at or below Km for ATP for the enzyme. Assays were initiated with MgATP and stopped by addition of 5 μl of 0.5M orthophosphoric acid. Assays were then harvested onto P81 filterplates using a unifilter harvester (PerkinElmer, Boston, Mass. 02118, USA), with a wash buffer of 50 mM orthophosphoric acid. Filterplates were then air dried overnight. 10 μl of Microscint O was added per well prior to counting for radioactivity.
MKK1, JNK/SAPK1c, SAPK2a/p38, SAPK2b/p38β2, SAPK3/p38γ, SAPK4/p38δ, MAPK2/ERK2, MAPKAP-K1β, MAPKAP-K2, MSK1, PRAK, PKA, PKCα, PDK1, SGK, p70S6K, GSK3β, ROCK-II, PRK2, AMPK, CHK1, CHK2, CK2, PHK, LCK, were assayed according to Davies et al., (Davies, S. P., Reddy, H., Caivano, M. and Cohen, P. Biochem. J. 351, 95-105, 2000.
CSK and CDK2/cyclinA, were assayed according to Bain et al. (Bain J, McLauchlan H, Elliott M, Cohen P. Biochem J. 371, 199-204, 2003., except that ATP concentrations were either 5, 20 or 50 micromolar so that they were at or below the Km for ATP. The ATP concentrations used were as follows, 5 μM for assays of MKK1, SAPK3, SAPK4, GSK3β, PRK2 CK2 20 μm for assays of JNK, SAPK2β, MAPKAP-K2, MSK1, PRAK, PKA, […], PDK1, SGK, p70S6K, ROCK-II, CHK1, CHK2, CSK, CDK2, and 50 μM for assays of SAPK2a, MAPK2/ERK2, AMPK, LCK, PHK and MAPKAP-K1β.

[2] = biological target: smMLCK (Homo sapiens, UniProt Q15746); assay: smMLCK 33P kinase assay; details: read-out: smMLCK activity as percentage of control without inhibitor
Protocol: as §1
smMLCK (5-20 mU) diluted in 50 mM Hepes pH 7.5, 0.1 mM EGTA, 1 mg.ml BSA, 0.1% β-mercaptoethanol is assayed against substrate peptide […] in an incubation containing 50 mM Hepes pH 7.5, 0.1 mM EGTA, 5 mM CaCl2, 10 μM calmodulin, 300 μM substrate peptide, 10 mM magnesium acetate and 0.05 mM [^33P-γ-ATP] (500-1000 cpm/pmole).

[3] = biological target: T2, DYRK1a (Homo sapiens, UniProt Q13627); assay: biochemical; details: for remaining activity at 1 µM / remaining activity at 10 µM: read-out: DYRK1a activity as percentage of control without inhibitor
T2 construct: made in house
Protocol: DYRK1A (5-20 mU of diluted in 50 mM Tris pH 7.5, 0.1 mM EGTA) was assayed against Woodtide ([…]) in a final volume of 25.5 μl containing 50 mM Tris pH 7.5, 0.1 mM EGTA, 350 uM substrate peptide, 10 mM magnesium acetate and 0.5 μl inhibitor and incubated at room temperature for 5 mins, followed by the addition of 0.05 mM [33P-gamma-ATP] (50-1000 cpm/pmole) and incubated for 30 mins at room temperature. Assays were stopped by addition of 5 μl of 0.5 M (3%) orthophosphoric acid then harvested onto P81 Unifilter plates with a wash buffer of 50 mM orthophosphoric acid. Filterplates were then air dried overnight. 10 μl of Microscint O was added per well prior to counting for radioactivity.

Row | Compound | remaining activity at 1 µM ([1]; inhibitor 1 μM) [%] | remaining activity at 10 µM ([1]; inhibitor 10 μM) [%] | remaining activity at 1 µM ([2]; inhibitor 1 μM) [%] | remaining activity at 10 µM ([2]; inhibitor 10 μM) [%] | remaining activity at 1 µM ([3]; inhibitor 1 μM) [%] | remaining activity at 10 µM ([3]; inhibitor 10 μM) [%] | remaining activity at 1 µM [1] [%] | remaining activity at 10 µM [1] [%] | remaining activity at 1 µM [2] [%] | remaining activity at 10 µM [2] [%] | inhibition of DYRK1a, result in words [3] | remaining activity at 1 µM [3] [%] | remaining activity at 10 µM [3] [%]
1 | COc1ccc2c3c([nH]c2c1)C(C)=NCC3 [Harmaline] | 98 | 94 | 92 | 104 | 78 | 8 |  |  |  |  |  |  | 
2 | COc1ccc2c(c1)[nH]c1c(C)nccc12 [Harmine] |  |  |  |  |  |  | 82 | 72 | 88 | 76 | very potent and specific inhibitor of DYRK1a | 4 | 1
3 | CC1=NCCc2c1[nH]c1cc(O)ccc21 [Harmalol] | 98 | 92 | 76 | 71 | 25 | 3 |  |  |  |  |  |  | 
